Laboratory results published in patent US9073955B2, “2-amino-4-arylthiazole compounds as TRPA1 antagonists” (Glenmark Pharmaceuticals, S.A., priority 2010, dated 2015).
Read-outs that look alike come from different tables or passages of the source.

Key:
[1] = Determination of solubility by shake flask method (water); type: physicochemical; conditions: for aqueous solubility over the parent thiazole acetamide: compared with the corresponding parent compound of formula (1); for solubility at 15 min: thermodynamic from solid, ‘P’ substituted thiazole compound, water, 37° C., shake flask
Description: About 1 mg of test substance was taken in test tube and water was added in the increment of 1 ml with shaking after addition of media (water). Solubility was observed visually also. After completion of addition of 10 ml volume of media (water), test tube containing sample solution were put on a mechanical shaker set at 37° C. and 200 rpm for shaking up to 15 minute. After shaking, content of flask was filtered through 0.45μ filter. This filtered solution is analyzed using HPLC method for quantification. A sample solution of 1 mg in 10 ml of DMSO is used as reference standard for quantifying dissolved test substance in media. Solubility is expressed as mcg/ml.
Aqueous solubility of ‘P’ substituted thiazole compounds and the parent thiazole compounds were determined using the above described procedure and the results are given Table 3.

[2] = biological target: T1, Human TRPA1 (Homo sapiens, UniProt O75762); assay: 45Calcium uptake assay: inhibition of AITC induced cellular uptake of radioactive calcium; type: cell-based; conditions: human TRPA1 expressing CHO cells, AITC 30 μM; for inhibition at 1 µM: read-out: Percentage inhibition at 1.0 μM; for inhibition at 10 µM: read-out: Percentage inhibition at 10.0 μM
T1 construct: expressed in transfected cells; host or cells: CHO cells (grown with 400 μg/ml G-418)
T1 sequence (O75762 whole entry): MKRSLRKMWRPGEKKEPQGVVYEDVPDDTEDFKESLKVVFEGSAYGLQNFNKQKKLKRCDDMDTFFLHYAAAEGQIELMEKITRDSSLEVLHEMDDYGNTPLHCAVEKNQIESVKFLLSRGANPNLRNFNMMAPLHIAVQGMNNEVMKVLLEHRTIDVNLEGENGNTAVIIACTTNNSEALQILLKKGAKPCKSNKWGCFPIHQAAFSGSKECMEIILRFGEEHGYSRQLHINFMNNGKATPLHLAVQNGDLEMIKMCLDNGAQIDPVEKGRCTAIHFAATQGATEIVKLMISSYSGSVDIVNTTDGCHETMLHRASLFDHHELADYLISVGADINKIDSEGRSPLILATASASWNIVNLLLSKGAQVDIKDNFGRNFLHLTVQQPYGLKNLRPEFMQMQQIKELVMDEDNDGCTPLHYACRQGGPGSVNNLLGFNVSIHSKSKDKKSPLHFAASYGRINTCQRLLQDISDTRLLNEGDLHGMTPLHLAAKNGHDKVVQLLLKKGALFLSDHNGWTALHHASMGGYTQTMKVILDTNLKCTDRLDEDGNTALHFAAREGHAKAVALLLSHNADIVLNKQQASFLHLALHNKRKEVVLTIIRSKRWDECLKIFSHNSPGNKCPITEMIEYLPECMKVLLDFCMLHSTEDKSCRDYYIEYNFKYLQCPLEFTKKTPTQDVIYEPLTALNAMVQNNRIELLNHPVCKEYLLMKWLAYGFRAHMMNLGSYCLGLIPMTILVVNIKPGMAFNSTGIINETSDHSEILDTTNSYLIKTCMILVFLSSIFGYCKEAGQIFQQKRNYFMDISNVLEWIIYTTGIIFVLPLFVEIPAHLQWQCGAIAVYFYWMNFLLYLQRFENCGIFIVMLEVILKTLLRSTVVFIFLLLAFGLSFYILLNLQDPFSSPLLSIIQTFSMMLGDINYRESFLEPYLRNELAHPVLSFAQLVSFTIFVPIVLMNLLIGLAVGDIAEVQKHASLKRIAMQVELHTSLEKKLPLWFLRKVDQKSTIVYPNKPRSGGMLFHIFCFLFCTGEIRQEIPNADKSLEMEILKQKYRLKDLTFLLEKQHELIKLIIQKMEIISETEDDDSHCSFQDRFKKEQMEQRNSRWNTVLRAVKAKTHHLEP
Description: The illustrative examples of the present invention were screened for TRPA1 activity according to a modified procedure described in (a) Tóth, A. et al. Life Sciences, 2003, 73, 487-498. ([…]. et al, Proc. Natl. Acad. Sci. U.S.A., 2007, 104, 13525-13530. The screening of the compounds can be carried out by other methods and procedures known to persons skilled in the art. Screening for TRPA1 Antagonist Using the ^45Calcium Uptake Assay: The inhibition of TRPA1 receptor activation was measured as inhibition of allyl isothiocyanate (AITC) induced cellular uptake of radioactive calcium. Test compounds were dissolved in 100% DMSO to prepare 10 mM stock and then diluted using plain medium with 0.1% BSA and 1.8 mM CaCl2 to get the desired concentration. The final concentration of DMSO in the reaction was 0.5% (v/v). Human TRPA1 expressing CHO cells were grown in F-12 DMEM medium with 10% FBS, 1% penicillin-streptomycin solution, and 400 μg/ml of G-418. Cells were seeded 24 h prior to the assay in 96 well plates so as to get 50,000 cells per well on the day of experiment. Cells were treated with the test compounds for 10 minutes followed by the addition of AITC at a final concentration of 30 μM and 5 μCi/ml^45Ca^+2 for 3 minutes. Cells were washed and lysed using a buffer containing 1% Triton X-100, 0.1% deoxycholate and 0.1% SDS. Radioactivity in the lysate was measured in a Packard TopCount after addition of liquid scintillant. (Toth et al, Life Sciences (2003) 73, 487-498; McNamara C R et al, Proceedings of the National Academy of Sciences, (2007) 104, 13525-13530). Concentration response curves were plotted as a % of maximal response obtained in the absence of test antagonist. IC50 values can be calculated from concentration response curve by nonlinear regression analysis using GraphPad PRISM software.

[3] = Rat pharmacokinetic (PK) study, oral suspension; type: in vivo, male rats (Sprague Dawley); conditions: for pharmacokinetic properties (Cmax and AUC) compared to the parent thiazole acetamide: compared with the corresponding parent compound of formula (1)
Description: PK values were obtained in male rats (strain: Sprague Dawley) orally dosed with the compounds of the present invention as suspension. Accurately weighed quantity of compound of present invention (corrected for purity and salt factor) was transferred into a clean and dry mortar. To this mortar was added 2.5 μL/mL Tween 80 and triturated until the compound gets properly wet. To this, 0.5% (w/v) methyl cellulose suspension was added in geometric proportions and triturated thoroughly to form a uniform suspension.
Animals were provided with food and water ad libitum through out the study period. Animals were dosed orally with the compounds using a gavage needle at 10 mL/kg body weight. Blood samples (250 μl approx.) were collected from male Sprague Dawley retro orbital sinus using rat capillary tubes into 0.6 mL eppendorf tubes with tripotassium ethylenediaminetetraacetic acid (K3 EDTA) (25 μL) as anticoagulant. Samples were collected at 0.5, 1.0, 2.0, 4.0, 6.0, 8.0, 12.0 and 24.0 hr post dosing for compounds. Then samples were centrifuged immediately at 1000 g for 10 min. at 4° C. Plasma samples were separated and stored at −70° C. till analysis. Samples were processed and analyzed using LCMS/MS. Pharmacokinetic parameters were calculated using Winonlin software. Table 4 provides the pK values (Cmax, AUC) obtained in these studies.

SMILES | inhibition at 1 µM ([2]; 1.0 μM) [%] | inhibition at 10 µM ([2]; 10.0 μM) [%] | IC50 [2] [µM] | pharmacokinetic properties (Cmax and AUC) compared to the parent thiazole acetamide [3] | solubility at 15 min [1] [mg/mL] | further results
Cl.Cn1c(=O)c2c(CC(=O)/N=c3\scc(-c4ccc(F)c(C(F)(F)F)c4F)n3COC(=O)CN)csc2n(C)c1=O [Example 3, [4-[2,4-Difluoro-3-(trifluoromethyl)phenyl]-2-{[(1,3-dimethyl-2,4-dioxo-1,2,3,4-tetrahydrothieno[2,3-d]pyrimidin-5-yl)acetyl]imino}-1,3-thiazol-3 (2H)-yl]methyl glycinate hydrochloride] | 100 | 99.9 | < 0.1 |  |  | aqueous solubility over the parent thiazole acetamide [1]: better aqueous solubility
Cn1c(=O)c2c(CC(=O)Nc3nc(-c4ccc(C(F)(F)F)c(F)c4F)cs3)nsc2n(C)c1=O [parent of Example 31, N-{4-[2,3-difluoro-4-(trifluoromethyl)phenyl]-1,3-thiazol-2-yl}-2-(5,7-dimethyl-4,6-dioxo-4,5,6,7-tetrahydro[1,2]thiazolo[5,4-d]pyrimidin-3-yl)acetamide, reference compound] |  |  |  |  |  | Cmax ([3]; rat, plasma, parent thiazole compound of the example, male Sprague Dawley rats, oral suspension): < 0.25 µg/mL; AUC(0-t) ([3]; rat, plasma, parent thiazole compound of the example, male Sprague Dawley rats, oral suspension, read-out: AUC0-24): < 2.5 µg·h/mL
Cc1oc2c(c1CC(=O)/N=c1\scc(-c3ccc(OC(F)(F)F)c(Cl)c3)n1COC(=O)[C@@H](N)C(C)C)c(=O)n(C)c(=O)n2C.Cl [Example 21, [4-[3-Chloro-4-(trifluoromethoxy)phenyl]-2-{[(1,3,6-trimethyl-2,4-dioxo-1,2,3,4-tetrahydrofuro[2,3-d]pyrimidin-5-yl)acetyl]imino}-1,3-thiazol-3(2H)-yl]methyl L-valinate hydrochloride] |  |  | < 0.1 | better pharmacokinetic properties |  | inhibition at 1 µM ([2]; CHO, 1.0 μM): 93.8%; inhibition at 10 µM ([2]; CHO, 10.0 μM): 99.9%
Cn1c(=O)c2c(CC(=O)/N=c3\scc(-c4ccc(F)c(C(F)(F)F)c4F)n3COP(=O)(O)O)csc2n(C)c1=O [Example 13, [4-[2,4-Difluoro-3-(trifluoromethyl)phenyl]-2-{[(1,3-dimethyl-2,4-dioxo-1,2,3,4-tetrahydrothieno[2,3-d]pyrimidin-5-yl)acetyl]imino}-1,3-thiazol-3 (2H)-yl]methyl dihydrogen phosphate] |  |  | > 0.5 |  | > 0.0025 | inhibition at 1 µM ([2]; CHO, 1.0 μM): 75.3%; inhibition at 10 µM ([2]; CHO, 10.0 μM): 99.3%
Cc1oc2c(c1CC(=O)/N=c1\scc(-c3ccc(OC(F)(F)F)c(Cl)c3)n1COC(=O)C1CCNCC1)c(=O)n(C)c(=O)n2C.Cl [Example 23, [4-[3-Chloro-4-(trifluoromethoxy)phenyl]-2-{[(1,3,6-trimethyl-2,4-dioxo-1,2,3,4-tetrahydrofuro[2,3-d]pyrimidin-5-yl)acetyl]imino}-1,3-thiazol-3 (2H)-yl]methyl piperidine-4-carboxylate hydrochloride] | 91.2 | 97.8 | 0.1 to 0.5 | better pharmacokinetic properties |  | 
CC[C@H](C)[C@H](N)C(=O)OCn1c(-c2ccc(C(F)(F)F)c(F)c2)cs/c1=N\C(=O)Cc1csc2c1c(=O)n(C)c(=O)n2C.Cl [Example 6, [2-{[(1,3-Dimethyl-2,4-dioxo-1,2,3,4-tetrahydrothieno[2,3-d]pyrimidin-5-yl)acetyl]imino}-4-[3-fluoro-4-(trifluoromethyl)phenyl]-1,3-thiazol-3(2H)-yl]methyl L-isoleucinate hydrochloride] | 89.8 | 98.6 | 0.1 to 0.5 | better pharmacokinetic properties |  | 
Cl.Cn1c(=O)c2c(CC(=O)/N=c3\scc(-c4ccc(F)c(C(F)(F)F)c4F)n3COC(=O)C3CCNCC3)csc2n(C)c1=O [Example 10, [4-[2,4-Difluoro-3-(trifluoromethyl)phenyl]-2-{[(1,3-dimethyl-2,4-dioxo-1,2,3,4-tetrahydrothieno[2,3-d]pyrimidin-5-yl)acetyl]imino}-1,3-thiazol-3(2H)-yl]methyl piperidine-4-carboxylate hydrochloride] | 90.5 | 89.3 | 0.1 to 0.5 |  | > 0.029 | aqueous solubility over the parent thiazole acetamide [1]: better aqueous solubility
Cn1nc2c(c1CC(=O)N=c1scc(-c3ccc(F)c(C(F)(F)F)c3F)n1COP(=O)([O-])[O-])c(=O)n(C)c(=O)n2C.[Na+].[Na+] [Example 29, Disodium-(4-(2,4-difluoro-3-(trifluoromethyl)phenyl)-2-((2-(2,5,7-trimethyl-4,6-dioxo-4,5,6,7-tetrahydro-2H-pyrazolo[3,4-d]pyrimidin-3-yl)acetyl)imino)thiazol-3 (2H)-yl)methyl phosphate] |  |  | > 0.5 |  | > 0.11 | 
Cn1c(=O)c2c(CC(=O)/N=c3\scc(-c4ccc(F)c(C(F)(F)F)c4F)n3COP(=O)([O-])[O-])csc2n(C)c1=O.[Na+].[Na+] [Example 14, Disodium[4-[2,4-difluoro-3-(trifluoromethyl)phenyl]-2-{[(1,3-dimethyl-2,4-dioxo-1,2,3,4-tetrahydrothieno[2,3-d]pyrimidin-5-yl)acetyl]imino}-1,3-thiazol-3(2H)-yl]methyl phosphate] |  |  | 0.1 to 0.5 |  | > 1.2 | 
CC[C@H](C)[C@H](N)C(=O)OCn1c(-c2ccc(F)c(C(F)(F)F)c2F)cs/c1=N\C(=O)Cc1csc2c1c(=O)n(C)c(=O)n2C.Cl [Example 7, [4-[2,4-Difluoro-3-(trifluoromethyl)phenyl]-2-{[(1,3-dimethyl-2,4-dioxo-1,2,3,4-tetrahydrothieno[2,3-d]pyrimidin-5-yl)acetyl]imino}-1,3-thiazol-3 (2H)-yl]methyl L-isoleucinate hydrochloride] | 98.6 | 99.6 | < 0.1 | better pharmacokinetic properties |  | 
Cc1oc2c(c1CC(=O)/N=c1\scc(-c3ccc(OC(F)(F)F)c(Cl)c3)n1COC(=O)CN)c(=O)n(C)c(=O)n2C.Cl [Example 20, [4-[3-Chloro-4-(trifluoromethoxy)phenyl]-2-{[(1,3,6-trimethyl-2,4-dioxo-1,2,3,4-tetrahydrofuro[2,3-d]pyrimidin-5-yl)acetyl]imino}-1,3-thiazol-3 (2H)-yl]methyl glycinate hydrochloride] | 96.7 | 96.2 | < 0.1 | better pharmacokinetic properties |  | 
Cc1oc2c(c1CC(=O)/N=c1\scc(-c3ccc(OC(F)(F)F)c(Cl)c3)n1COP(=O)([O-])[O-])c(=O)n(C)c(=O)n2C.[Na+].[Na+] [Example 26, Disodium[4-[3-chloro-4-(trifluoromethoxy)phenyl]-2-{[(1,3,6-trimethyl-2,4-dioxo-1,2,3,4-tetrahydrofuro[2,3-d]pyrimidin-5-yl)acetyl]imino}-1,3-thiazol-3 (2H)-yl]methyl phosphate] |  |  |  |  | > 0.075 | Percentage inhibition at 1.0 μM ([2]; 1.0 μM): 12.64%; Percentage inhibition at 10.0 μM ([2]; 10.0 μM): 96.25%
